{"source": "patent US11779649B2", "about": "“Antibodies to PMEL17 and conjugates thereof” (Novartis AG, priority 2018, dated 2023)", "key": {"[1]": {"test_system": "ERK signaling", "experiment": "Western-blotting of 92.1 cells, ERK signaling", "assay_type": "cell-based", "settings": "FIG. 3C", "protocol": "(§1) 92.1 uveal melanoma were treated with increasing concentrations of Compound (A1) or Compound (A2) as indicated. Following drug treatment overnight, cells were processed for determination of IP1 levels using TR-FRET (time-resolved fluorescent resonance energy transfer) or protein levels by western-blotting."}, "[2]": {"experiment": "Stability in buffer at pH 5.6 and in lysosomes", "assay_type": "in vitro ADME", "settings": "buffer pH 5.6, lysosomes, 4 h, FIG. 5D", "protocol": "(§2) In vitro stability of Compound (A2) was tested in plasma and blood from different species (FIG. 5A). […]"}, "[3]": {"test_system": "MIAPACA pancreatic ductal adenocarcinoma cells", "experiment": "Resazurin-based viability assay, MIAPACA cells", "assay_type": "cell-based", "settings": "Homo sapiens, MIA PaCa-2, WT, 96 or 120 hours, Table 4", "protocol": "92.1 uveal melanoma and MIAPACA pancreatic ductal adenocarcinoma cells were seeded at low cell density in 96-well plates and treated with increasing concentrations of Compound (A1) or Compound (A2) as indicated. Following drug treatment for 96 or 120 hours, cell viability and proliferation were determined using a resazurin-based viability assay. Briefly, cells were incubated with a resazurin-based solution and color change was detected by absorbance with a spectrophotometer and used as a readout of cell viability. Data presented as mean of 3 independent replicates and relative to PBS-treated cells (control)."}, "[4]": {"test_system": "GNAQ/11", "experiment": "IP1 levels by TR-FRET in 92.1 uveal melanoma cells", "assay_type": "cell-based", "settings": "92.1 cells, overnight treatment, FIG. 3A", "protocol": "as §1\n92.1 uveal melanoma were treated with DMSO, Compound (A1) (8 nM) and increasing concentrations of Isotype-(B1), anti-PMEL17-(B1) and anti-PMEL17-(B2) ADCs as indicated. Following drug treatment for 2 days, cells were processed for determination of IP1 levels using TR-FRET (time-resolved fluorescent resonance energy transfer). IP1 levels (nM) are presented as mean of 3 independent replicates."}, "[5]": {"experiment": "Stability of Compound (A2), hepatocytes, human", "assay_type": "in vitro ADME", "protocol": "as §2"}, "[6]": {"experiment": "Stability of Compound (A2), hepatic S9 fraction, human", "assay_type": "in vitro ADME", "settings": "read-out: Hepatic S9 (+/−NADPH) t½ (converted)", "protocol": "as §2"}, "[7]": {"experiment": "Stability of Compound (A2), plasma, mouse", "assay_type": "in vitro ADME", "settings": "read-out: Plasma t½ (converted)", "protocol": "as §2"}, "[8]": {"experiment": "Stability of Compound (A2), hepatic microsomes, human", "assay_type": "in vitro ADME", "settings": "intrinsic clearance", "protocol": "as §2"}, "[9]": {"experiment": "Stability of Compound (A2), plasma, human", "assay_type": "in vitro ADME", "settings": "read-out: Plasma t½ (converted)", "protocol": "as §2"}, "[10]": {"experiment": "Stability of Compound (A2), hepatic microsomes, rat", "assay_type": "in vitro ADME", "settings": "intrinsic clearance", "protocol": "as §2"}, "[11]": {"test_system": "92.1 cells", "experiment": "Annexin V flow cytometry apoptosis assay, 92.1 cells", "assay_type": "cell-based", "settings": "92.1 and MIAPACA cells, FIG. 2", "protocol": "(§3) 92.1 and MIAPACA cells were seeded in 96-well plates (5000 cells per well) and treated with increasing concentrations of Compound (A1), Compound (A2), and a fixed dose of Staurosporine (100 nM, positive control) as indicated. Following drug treatment for 96, cells were subjected to fluorescence-activated flow cytometry using an Annexin V antibody conjugated to a fluorescent dye. Data presented as mean of 3 independent replicates.\nas §3, with “92.1” for “92.1 and MIAPACA”, “3207-(B1) (Isotype control), G4-(B1),” for “Compound (A2),”, “G1-(B1)” for “a fixed dose of Staurosporine (100 nM, positive control)”"}, "[12]": {"experiment": "Stability of Compound (A2), hepatocytes, rat", "assay_type": "in vitro ADME", "protocol": "as §2"}, "[13]": {"experiment": "Stability of Compound (A2), hepatic S9 fraction, mouse", "assay_type": "in vitro ADME", "settings": "read-out: Hepatic S9 (+/−NADPH) t½ (converted)", "protocol": "as §2"}, "[14]": {"test_system": "92.1 uveal melanoma", "experiment": "Resazurin-based viability assay, 92.1 uveal melanoma cells", "assay_type": "cell-based", "protocol": "(§4) Following drug treatment for 96 or 120 hours, cell viability and proliferation were determined using a resazurin-based viability assay. Briefly, cells were incubated with a resazurin-based solution and color change was detected by absorbance with a spectrophotometer and used as a readout of cell viability. Data presented as mean of 3 independent replicates and relative to PBS-treated cells (control).\nas §4, with “(control) (FIG. 6).” for “(control).”\nFollowing drug treatment for 96 or 120 hours, cell viability and proliferation were determined using a resazurin-based viability assay. Data presented as mean of 3 independent replicates and relative to PBS-treated cells (control) (FIG. 8).\nas §4"}, "[15]": {"experiment": "Stability of Compound (A2), plasma, rat", "assay_type": "in vitro ADME", "settings": "read-out: Plasma t½ (converted)", "protocol": "as §2"}, "[16]": {"experiment": "Chemical stability of Compound (A2) in three different systems", "assay_type": "physicochemical", "settings": "FIG. 5B", "protocol": "as §2"}, "[17]": {"experiment": "PK of Compound (A2) in female balb/c mice", "assay_type": "in vivo", "protocol": "as §2"}, "[18]": {"experiment": "Stability of Compound (A2), hepatic microsomes, mouse", "assay_type": "in vitro ADME", "settings": "intrinsic clearance", "protocol": "as §2"}, "[19]": {"experiment": "Stability of Compound (A2), hepatic S9 fraction, rat", "assay_type": "in vitro ADME", "protocol": "as §2"}}, "note": "Read-outs that look alike come from different tables or passages of the source. Positions of bridges follow the written chain, without caps; N, C: chain ends. Non-standard residues stand in square brackets, D forms with d. Residues, ends and D or L forms follow the SMILES beside them. Leu(3R-O(AcLeu(3R-OH))) = CC(=O)N[C@H](C(=O)O[C@H](C(C)C)[C@H](N)C(=O)O)[C@H](O)C(C)C; NMeT = CN[C@H](C(=O)O)[C@@H](C)O; dPhLac = O=C(O)[C@H](O)Cc1ccccc1; NMeA = CN[C@@H](C)C(=O)O; NMeDha = C=C(NC)C(=O)O"}
{"smiles": "C=C1C(=O)N[C@@H](C)C(=O)N(C)[C@@H](C)C(=O)N[C@@H]([C@H](OC(=O)[C@@H](NC(C)=O)[C@H](O)C(C)C)C(C)C)C(=O)N(C)[C@@H]([C@@H](C)OC)C(=O)O[C@H](C)[C@H](NC(C)=O)C(=O)O[C@H](Cc2ccccc2)C(=O)N1C", "note": "[Compound (A2), (R)-1-((3S,6S,9S,12S,18R,21S,22R)-21-acetamido-18-benzyl-3-((R)-1-methoxyethyl)-4,9,10,12,16,22-hexamethyl-15-methylene-2,5,8,11,14,17,20-heptaoxo-1,19-dioxa-4,7,10,13,16-pentaazacyclodocosan-6-yl)-2-methylpropyl (2S,3R)-2-acetamido-3-hydroxy-4-methylpentanoate] (Ac-T[dPhLac][NMeDha]A[NMeA][Leu(3R-O(AcLeu(3R-OH)))][NMeT](Me); ester 1-C)", "values": [{"measurement": "ERK signaling (immunoblots)", "setting": "[1]", "value": "reduced ERK signaling"}, {"measurement": "stability in buffer and lysosomes", "setting": "[2]", "value": "stable in buffer at pH 5.6 and in lysosomes over 4 h"}, {"measurement": "GI50", "setting": "[3]", "value": "> 10", "unit": "µM"}, {"measurement": "IP1 levels", "setting": "[4]", "value": "reduced IP1 levels"}, {"measurement": "Hepatocytes (ul/min/10^6 cells)", "setting": "[5]", "value": "<4", "unit": "ul/min/10^6 cells"}, {"measurement": "half-life", "setting": "[6]; +NADPH", "value": 1.9, "unit": "h"}, {"measurement": "half-life", "setting": "[6]; −NADPH", "value": "> 2", "unit": "h"}, {"measurement": "half-life", "setting": "[7]", "value": 2.1, "unit": "h"}, {"measurement": "Hepatic microsomes", "setting": "[8]", "value": 0.044, "unit": "mL/min/kg"}, {"measurement": "half-life", "setting": "[9]", "value": 2, "unit": "h"}, {"measurement": "Hepatic microsomes", "setting": "[10]", "value": 0.033, "unit": "mL/min/kg"}, {"measurement": "apoptosis (Annexin V)", "setting": "[11]", "value": "induced apoptosis in UM cells in GNAQ/11 dependent manner"}, {"measurement": "Hepatocytes (ul/min/10^6 cells)", "setting": "[12]", "value": 8, "unit": "ul/min/10^6 cells"}, {"measurement": "half-life", "setting": "[13]; +NADPH", "value": 1.9, "unit": "h"}, {"measurement": "half-life", "setting": "[13]; −NADPH", "value": "> 2", "unit": "h"}, {"measurement": "GI50", "setting": "[14]; 92.1, GNAQ^Q209L, 96 or 120 hours, Table 4, read-out: GI50", "value": 7.7, "unit": "nM"}, {"measurement": "GI50", "setting": "[14]; 92.1 GNAQ^Q209L, Table 1, read-out: GI50 (nM) 92.1GNAQ^Q209L", "value": 22.1, "unit": "nM"}, {"measurement": "anti-UM activity", "setting": "[14]; 92.1 vs MIAPACA, FIG. 1", "value": "potent target-dependent anti-UM activity"}, {"measurement": "half-life", "setting": "[15]", "value": 4.1, "unit": "h"}, {"measurement": "chemical stability", "setting": "[16]", "value": "good chemical stability in three different systems"}, {"measurement": "clearance", "setting": "[17]; FIG. 5C", "value": "high clearance"}, {"measurement": "elimination half-life", "setting": "[17]; FIG. 5C", "value": "short elimination half-life"}, {"measurement": "half-life", "setting": "[17]; mouse, in vivo, 1 mg/kg iv", "value": "0.4 ± 0.01", "unit": "h"}, {"measurement": "clearance", "setting": "[17]; mouse, in vivo, 1 mg/kg iv, read-out: CL", "value": "175 ± 29", "unit": "mL/min/kg"}, {"measurement": "Hepatic microsomes", "setting": "[18]", "value": 0.107, "unit": "mL/min/kg"}, {"measurement": "half-life", "setting": "[19]; hepatic S9 fraction, +NADPH, read-out: Hepatic S9 (+/−NADPH) t½", "value": "> 2", "unit": "h"}, {"measurement": "Hepatic S9 (+/−NADPH) t½ (h)", "setting": "[19]; −NADPH", "value": ">2/>2 h"}]}
